Data from patent US20220265658A1, “PHARMACEUTICAL COMPOSITION COMPRISING A TETRAHYDROPYRAZOLOPYRIMIDINONE COMPOUND” (Idorsia Pharmaceuticals Ltd., priority 2019, published 2022).

Key:
[1] = Stability testing of solid COMPOUND (powder in glass vial, HPLC 1 area vs reference stored at -20° C.); format: physicochemical; settings: 260 nm
Description: Samples were directly analyzed by HPLC without dilution (expected concentration 1000 μg/mL). The HPLC area of each treated sample was compared to the HPLC area of the reference samples.
HPLC system: High pressure mixing Shimadzu Prominence (HPLC_08_DAD); Flow: 1.5 mL/min; Column temperature: 50° C.; Autosampler temperature: 25° C.; Injection volume: 3.0 μL; Column: Waters XBridge BEH C18 2.5 μm 2.1*50 mm Column XP; Wavelength: DAD 260 nm

[2] = Gravimetric vapour sorption (GVS) hygroscopicity; format: physicochemical; settings: 25° C., mass change 40% to 80% RH, first adsorption scan
Description: Measurements are performed on a multi sample instrument SPS-100n (ProUmid, Ulm, Germany) operated in stepping mode at 25° C. The sample is allowed to equilibrate at 40% RH before starting a pre-defined humidity program (40-0-95-0-95-40% RH, steps of 5% ARH and with a maximal equilibration time of 24 hours per step are applied). About 20 to 30 mg of each sample is used. The hygroscopic classification is done on the basis of the European Pharmacopeia Technical Guide (1999, page 86), e.g., Non-hygroscopic: increase in mass is less than 0.2% mass/mass; slightly hygroscopic: increase in mass is less than 2% and equal to or greater than 0.2% mass/mass; hygroscopic: increase in mass is less than 15% and equal to or greater than 2% mass/mass. The mass change between 40% relative humidity and 80% relative humidity in the first adsorption scan is considered.

[3] = log P measured in octanol/phosphate buffer saline pH 7.4; format: physicochemical
Source text: […]

[4] = biological target: T1, C5AR1 (Homo sapiens, UniProt P21730); experiment: In vitro assay: CHO-K1 C5AR1 beta-arrestin cell line (PathHunter), antagonism of C5a; format: cell-based; settings: 1-10 nM C5a agonist; geometric mean; read-out: antagonistic activity (IC50)
T1 construct: host or cells: CHO-K1
T1 sequence (P21730 1-350): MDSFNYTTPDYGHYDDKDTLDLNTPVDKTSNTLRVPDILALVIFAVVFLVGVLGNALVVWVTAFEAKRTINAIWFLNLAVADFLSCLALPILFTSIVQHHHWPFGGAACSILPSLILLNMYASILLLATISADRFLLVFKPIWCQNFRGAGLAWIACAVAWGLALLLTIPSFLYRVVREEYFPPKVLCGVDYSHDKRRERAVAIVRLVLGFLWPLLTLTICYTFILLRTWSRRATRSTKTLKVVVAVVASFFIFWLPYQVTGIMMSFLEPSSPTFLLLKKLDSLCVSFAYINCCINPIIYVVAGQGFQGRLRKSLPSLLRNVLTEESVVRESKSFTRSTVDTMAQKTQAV
Description: Adherent cells (CHO-K1 C5AR1 beta-arrestin cell line, DiscoverX, CA USA) are washed with PBS, detached by incubation with Dissociation Buffer (Gibco Cat #13151-014, 2 ml per 165 cm2 dish) for 3 minutes, then washed with 10 ml PBS (without Mg++ and Ca++) and counted. 7500 cells/384-well are seeded in 384-well plates (Cell culture plate MTP384 white Polystyrene, Corning, Cat #3570) in 20 μl/well Cell plating medium (F12 HAMs/10% FCS/1% P/S) and incubated at 37° C./5% CO2/24 h.
5 μl Antagonist at 6-fold end concentration or DMSO control is added to assay medium and subsequently 5 μl 1-10 nM C5a agonist at 6 fold end concentration. Cells are centrifuged for 1 min at 1000 rpm and incubated for 1.5 hour in at 37° C. Plates are equilibrated at room temperature for several minutes before adding 12 μl/well Detection Reagent (PathHunter Detection Kit, DiscoverX, Cat #93-0001). Plates are centrifuged for 1 min at 1000 rpm and incubated for 45 minutes at RT before being measured on a Fluostar Optima, BMG Labtech. IC50 values are calculated from a serial dilution range of antagonist using inhouse software and given in nmol/l.
The calculated IC50 values may fluctuate depending on the daily cellular assay performance. Fluctuations of this kind are known to those skilled in the art. Average IC50 values from several measurements are given as geometric mean values.

SMILES: Cc1cccc(F)c1N1CCC(N2Cc3cn(CC(C)(F)F)nc3N(Cc3ccccc3C(F)(F)F)C2=O)CC1 [Amorphous, 2-(2,2-Difluoro-propyl)-5-[1-(2-fluoro-6-methyl-phenyl)-piperidin-4-yl]-7-(2-trifluoromethyl-benzyl)-2,4,5,7-tetrahydro-pyrazolo[3,4-d]pyrimidin-6-one]
- HPLC 1 area compared to a reference that was stored at −20° C. for the same amount of time ([1]; closed vial for 30 days at 40° C. and 75% relative humidity): 79%
- HPLC 1 area compared to a reference that was stored at −20° C. for the same amount of time ([1]; closed vial for 30 days at room temperature and day light exposure): 57%

SMILES: Cc1cccc(F)c1N1CCC(N2Cc3cn(CC(C)(F)F)nc3N(Cc3ccccc3C(F)(F)F)C2=O)CC1 [COMPOUND in crystalline form 1, 2-(2,2-Difluoro-propyl)-5-[1-(2-fluoro-6-methyl-phenyl)-piperidin-4-yl]-7-(2-trifluoromethyl-benzyl)-2,4,5,7-tetrahydro-pyrazolo[3,4-d]pyrimidin-6-one]
- Hygroscopicity as measured by GVS [2]: non-hygroscopic
- HPLC 1 area compared to a reference that was stored at −20° C. for the same amount of time ([1]; closed vial for 30 days at 40° C. and 75% relative humidity, listed as Form 1): 100%
- HPLC 1 area compared to a reference that was stored at −20° C. for the same amount of time ([1]; closed vial for 30 days at room temperature and day light exposure, listed as Form 1): 100%

SMILES: Cc1cccc(F)c1N1CCC(N2Cc3cn(CC(C)(F)F)nc3N(Cc3ccccc3C(F)(F)F)C2=O)CC1 [COMPOUND, 2-(2,2-Difluoro-propyl)-5-[1-(2-fluoro-6-methyl-phenyl)-piperidin-4-yl]-7-(2-trifluoromethyl-benzyl)-2,4,5,7-tetrahydro-pyrazolo[3,4-d]pyrimidin-6-one]
- logP [3]: 6.9
- IC50 [4]: 11 nM
